According to article PMC10572602, “Molecular Mechanism of STIL Coiled-Coil Domain Oligomerization” (International Journal of Molecular Sciences, 2023):
Read-outs that look alike come from different tables or passages of the source.

Columns and labels:
[1] = format: physicochemical; conditions: for Tm: CD 222 nm, Boltzmann fit
From the text: (§1) Next, we used circular dichroism (CD) spectroscopy to probe the secondary structures of these WT CCD peptide assemblies. […] The spectra all had minima at 208 and 222 nm indicative of largely α-helical structures. From the high-concentration spectra we estimated ≈47% helix. To compare how the stabilities of these helical assemblies changed with concentration, we followed the changes in MRE222 with temperature over the same concentration range (Figure 2D, Table S1). Sigmoidal curves indicative of cooperative unfolding were apparent at all concentrations, indicating a cooperatively folded, oligomeric species. […] The temperature-dependent CD measurements were performed to determine the oligomerization-dependent thermal stability of the CCD. […] CD spectra of the peptides were recorded using a J-810 spectropolarimeter (Jasco) in a 0.1 cm and 1 cm quartz cuvette for far-UV CD spectroscopy, in a spectral range of 190 nm to 260 nm. The buffer used in the CD measurements was 25 mM sodium phosphate buffer pH = 6.8 with ionic strength of 154 mM (adjected by NaCl). The thermal melting of all STIL CCD peptides were measured as described. The graphs were fitted to Boltzmann equation in order to generate the Tm. Normalization to mean residue ellipticity was performed. The 100% helicity was calculated (with normalization to the length of the peptide and the condition of the measurement) as MRE × 10^−3 of −38 (Deg × cm^2 × dmol^−1 × res^−1).

STIL CCD peptide [2] = assay: AUC sedimentation equilibrium (SE), oligomeric state; format: physicochemical; conditions: absorbance 225 nm, 95% confidence limits
Experimental: (§2) To quantify the dissociation constants of the possible monomer-dimer and dimer-tetramer transitions, we used fluorescence-based binding measurements. Using micro-scale thermophoresis, fluorescence measurements were taken at increasing concentrations of WT CCD peptide in a fixed background of 5 µM fluorophore-labelled peptide. […] Fitting the fluorescence data to the Hill equation provided a dissociation constant of 8 ± 2 µM and a cooperativity of 1.2 ± 0.3 (Figure 2B, Table S4). We interpret this as being for the monomer-dimer transition, and that the fluorescence measurements are insensitive to the higher-order oligomerization. […] To probe the possible dimer-tetramer transition, we turned to AUC-SE measurements with starting concentrations of 5, 10, and 20 µM of STIL WT CCD peptide (Figures S18 and S19). The equilibrated data were fitted first to a model for a single ideal species, which provided a species 2.9 × monomer mass (Table 1). […] It should be noted that the dimerization constant of the WT peptide was measured in the presence of 5% DMSO and using a fluorophore-labeled peptide, while the tetramerization constant was measured without DMSO and unlabeled peptides. The addition of the label and the presence of the DMSO, which was unavoidable for making the labeled peptide soluble, may have affected the measured dimerization constant. Thus, we avoid directly comparing the values obtained by the two methods.
(§3) Analytical ultracentrifugation (AUC) experiments were carried out using a Beckman Optima XL-A or XL-I analytical ultracentrifuge. Measurements were performed at 20 °C unless otherwise stated, using an An-50 or An-60 rotor, in Sodium Phosphate Buffer pH 6.8 (25 mM Na2PO4 with addition of 137 mM NaCl, pH measured using Jenway (TM) 3510 benchtop and adjusted using 1M HCl and 1M NaOH solutions). The partial specific volume ( υ¯ ) for each peptide were calculated in Sedfit using values from Cohn and Edsall. The buffer densities and viscosities were calculated using UltraScan III [54].
AUC sedimentation equilibrium (SE) experiments were run at multiple concentrations in a 6-Channel Epon charcoal-filled centerpiece. The samples were centrifuged at a range of speeds between 22–48 krpm. Absorbance scans across the radial range were recorded twice at each speed to ensure equilibration. Data were fitted to single, ideal species models or monomer-dimer equilibrium using Sedphat. In total, 95% confidence limits were obtained via Monte-Carlo analysis of the obtained fits. The quality of the fit was evaluated using the χ^2 parameter to observe which model best fit the data. Both fits of the data, where performed in Figures S18–S23 with their corresponding fit information.

STIL CCD peptide [3] = assay: AUC-SE dimer-tetramer model, tetramerization KD; format: binding; conditions: any experimental conditions; KDs could not be measured
Experimental: as §2
Analytical ultracentrifugation (AUC) experiments were carried out using a Beckman Optima XL-A or XL-I analytical ultracentrifuge. Measurements were performed at 20 °C unless otherwise stated, using an An-50 or An-60 rotor, in Sodium Phosphate Buffer pH 6.8 (25 mM Na2PO4 with addition of 137 mM NaCl, pH measured using Jenway (TM) 3510 benchtop and adjusted using 1M HCl and 1M NaOH solutions). The partial specific volume ( υ¯ ) for each peptide were calculated in Sedfit using values from Cohn and Edsall. The buffer densities and viscosities were calculated using UltraScan III [54]. […]

[4] = CD spectroscopy, helicity; format: physicochemical; conditions: CD at 50 µM, 5 °C, 25 mM sodium phosphate pH 6.8, 154 mM NaCl
From the text: as §1

STIL CCD peptide [5] = assay: AUC sedimentation velocity (SV), oligomeric state; format: physicochemical; conditions: for sw / mw (solution mass from c(s) fit) / f/f0 / sw(20,w) / oligomeric state (average number of monomers in the oligomer): AUC-SV, 60 krpm; for sw / mw (solution mass from c(s) fit) / oligomeric state (average number of monomers in the oligomer): 20 °C; for sw / mw (solution mass from c(s) fit) / f/f0 / sw(20,w): pH 6.8; for mw (solution mass from c(s) fit) / oligomeric state (average number of monomers in the oligomer): 95% confidence level; for oligomeric state (average number of monomers in the oligomer): continuous c(s), 25 mM sodium phosphate pH 6.8, NaCl
Experimental: Previously, we and others have shown by size-exclusion chromatography and multi-angle light scattering that the oligomerization of a STIL CCD peptide is concentration dependent. However, these studies were qualitative and the interaction was not quantified. To quantify the oligomerisation of the STIL CCD peptide, analytical ultracentrifugation (AUC) sedimentation velocity (SV) and sedimentation equilibrium (SE) experiments were performed (Figure 2A, Table 1 and Figures S4–S9, S18 and S19). AUC-SV experiments were conducted at several concentrations to explore how the oligomeric state changed with concentration in the low-to-high µM concentration range, and also to estimate the dissociation constants of the oligomerization of the STIL CCD peptide.
as §3
Sedimentation velocity (SV) experiments were performed in EPON 2-channel centerpieces with quartz windows or aluminium centrepieces with sapphire windows. The samples were centrifuged at 50 or 60 krpm where stated, with absorbance measurements taken from a radial range of 5.7–7.3 cm. 120 scans were taken at 5 min intervals, the data were fit in Sedfit to a continuous c(s) distribution model at a 95% confidence level. The frictional ration and baseline were floated, and Time-invariant and Radial-invariant noise were fit. Initially data were fit between a range of Svedberg ratio of 0–15, but this was reduced to 0–3 for all data as there were no larger species. The residuals for each individual fit are shown in Figures S14–S17 as a bitmap in which the color indicates the difference between the model fit and the raw data over the radial range to which the data were fitted. The scans are in vertical chronological order.

[6] = test system: Stil−/− mouse embryonic fibroblasts; conditions: full-length STIL expressed in Stil−/− mouse embryonic fibroblasts; ref [14]; cited from earlier work
From the text: Presumably, this is due to the disruption of the hydrophobic CC interactions upon mutation from the hydrophobic Leu to the charged Glu. […] Other ...

L SPDLYRF LTEQDRQ LRLLQAQ IQRLLEA QSL-NH2 [STIL CCD718–749 A722L, STIL CCD peptide with A722L mutation]
Tm ([1]; 3 µM, sodium phosphate pH 6.8): 48.0±0.7 °C
Tm ([1]; 5 µM, sodium phosphate pH 6.8): 52.9±0.9 °C
Tm ([1]; 6 µM, sodium phosphate pH 6.8): 53.6±0.6 °C
Tm ([1]; 10 µM, sodium phosphate pH 6.8): 59.1±0.8 °C
Tm ([1]; 15 µM, sodium phosphate pH 6.8): 63±1 °C
Tm ([1]; 20 µM, sodium phosphate pH 6.8): 68±2 °C
Tm ([1]; 50 µM, 25 mM sodium phosphate pH 6.8, 154 mM NaCl): >70 °C
Tm ([1]; 50 µM, 25 mM sodium phosphate pH 6.8, 154 mM NaCl, listed as A722L): over 70 °C
thermal denaturation (in words) ([1]; 50 µM, CD, 25 mM sodium phosphate pH 6.8, 154 mM NaCl): partially denatured
concentration dependence of Tm / thermal stability (in words) ([1]; pH 6.8): the thermal stability of A722L increased with peptide concentration
AUC oligomeric state, SE (STIL CCD peptide [2]; starting concentrations 5, 10, 20 µM, single ideal species fit, 20 °C, 25 mM phosphate pH 6.8): 3.51 ± 0.02 (5, 10, 20 µM) × monomer mass
mass, single species model, SE (STIL CCD peptide [2]; starting concentrations 20, 10 and 5 µM): 13541 ± 94 Da
dissociation of tetramer (in words) (STIL CCD peptide [3]): could not be dissociated under any experimental conditions
MRE222 nm [4]: −24.9 kdeg cm^2 dmol^−1 res^−1
% Helicity ([4]; from MRE222 (100% = −38)): 66%
Oligomeric State (at 10 µM) (STIL CCD peptide [5]; 10 µM): Tetramer
sw (STIL CCD peptide [5]; 10 µM): 1.384 S
mw (solution mass from c(s) fit) (STIL CCD peptide [5]; 10 µM): 15133 Da
f/f0 (STIL CCD peptide [5]; 10 µM): 1.458
sw(20,w) (STIL CCD peptide [5]; 10 µM): 1.428 S
oligomeric state (average number of monomers in the oligomer) (STIL CCD peptide [5]; 10 µM, absorbance): 3.92 × monomer mass
sw (STIL CCD peptide [5]; 100 µM): 1.483 S
mw (solution mass from c(s) fit) (STIL CCD peptide [5]; 100 µM): 15385 Da
f/f0 (STIL CCD peptide [5]; 100 µM): 1.403
sw(20,w) (STIL CCD peptide [5]; 100 µM): 1.514 S
oligomeric state (average number of monomers in the oligomer) (STIL CCD peptide [5]; 100 µM, listed as STIL-A722L): 4.0 × monomer mass

B1: full-length L736E mutant: full-length STIL protein with L736E mutation (protein, UniProt Q15468 1-1287, looked up, variant L736E)
chain: MEPIYPFARPQMNTRFPSSRMVPFHFPPSKCALWNPTPTGDFIYLHLSYYRNPKLVVTEKTIRLAYRHAKQNKKNSSCFLLGSLTADEDEEGVTLTVDRFDPGREVPECLEITPTASLPGDFLIPCKVHTQELCSREMIVHSVDDFSSALKALQCHICSKDSLDCGKLLSLRVHITSRESLDSVEFDLHWAAVTLANNFKCTPVKPIPIIPTALARNLSSNLNISQVQGTYKYGYLTMDETRKLLLLLESDPKVYSLPLVGIWLSGITHIYSPQVWACCLRYIFNSSVQERVFSESGNFIIVLYSMTHKEPEFYECFPCDGKIPDFRFQLLTSKETLHLFKNVEPPDKNPIRCELSAESQNAETEFFSKASKNFSIKRSSQKLSSGKMPIHDHDSGVEDEDFSPRPIPSPHPVSQKISKIQPSVPELSLVLDGNFIESNPLPTPLEMVNNENPPLINHLEHLKPLQPQLYDEKHSPEVEAGEPSLRGIPNQLNQDKPALLRHCKVRQPPAYKKGNPHTRNSIKPSSHNGPSHDIFEKLQTVSAGNVQNEEYPIRPSTLNSRQSSLAPQSQPHDFVFSPHNSGRPMELQIPTPPLPSYCSTNVCRCCQHHSHIQYSPLNSWQGANTVGSIQDVQSEALQKHSLFHPSGCPALYCNAFCSSSSPIALRPQGDMGSCSPHSNIEPSPVARPPSHMDLCNPQPCTVCMHTPKTESDNGMMGLSPDAYRFLTEQDRQLRLEQAQIQRLLEAQSLMPCSPKTTAVEDTVQAGRQMELVSVEAQSSPGLHMRKGVSIAVSTGASLFWNAAGEDQEPDSQMKQDDTKISSEDMNFSVDINNEVTSLPGSASSLKAVDIPSFEESNIAVEEEFNQPLSVSNSSLVVRKEPDVPVFFPSGQLAESVSMCLQTGPTGGASNNSETSEEPKIEHVMQPLLHQPSDNQKIYQDLLGQVNHLLNSSSKETEQPSTKAVIISHECTRTQNVYHTKKKTHHSRLVDKDCVLNATLKQLRSLGVKIDSPTKVKKNAHNVDHASVLACISPEAVISGLNCMSFANVGMSGLSPNGVDLSMEANAIALKYLNENQLSQLSVTRSNQNNCDPFSLLHINTDRSTVGLSLISPNNMSFATKKYMKRYGLLQSSDNSEDEEEPPDNADSKSEYLLNQNLRSIPEQLGGQKEPSKNDHEIINCSNCESVGTNADTPVLRNITNEVLQTKAKQQLTEKPAFLVKNLKPSPAVNLRTGKAEFTQHPEKENEGDITIFPESLQPSETLKQMNSMNSVGTFLDVKRLRQLPKLF
modifications: full-length
notes: full-length STIL protein with L736E mutation
formation of centrosomes and cilia (in words) [6]: completely disrupts the formation of centrosomes and cilia
